PubChem BioAssay (NCI)
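Cells were grown in 96-well plates and exposed to each compound for 48 hours at five concentrations; endpoints were interpolated linearly between bracketing concentrations, or set to the highest concentration if not reached. Definition used: TGI = concentration required for complete inhibition of growth.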

Assays:
Test in all cases: NCI-60 cell line screen, 48 h
[1] = tested on: IGROV1 ovarian
[2] = tested on: HOP-92 NSCLC
[3] = tested on: M14 melanoma
[4] = tested on: TK-10 renal
[5] = tested on: HCT-15 colon
[6] = tested on: HOP-62 NSCLC
[7] = tested on: ACHN renal
[8] = tested on: OVCAR-3 ovarian
[9] = tested on: BT-549 breast
[10] = tested on: OVCAR-5 ovarian

COc1cc(CC2C(=O)OCC2[C@@H](OC(C)=O)c2ccc3c(c2)OCO3)c(Br)c(OC)c1OC (some centres undefined)
TGI [1]: > 100 µM | TGI [2]: 92.7 µM | TGI [3]: > 100 µM | TGI [4]: > 100 µM | TGI [5]: > 100 µM | TGI [6]: > 100 µM | TGI [7]: > 100 µM | TGI [8]: > 100 µM

Cc1ccc(S(=O)(=O)NCCCSCCO)cc1
TGI [2]: > 100 µM | TGI [3]: > 100 µM | TGI [4]: > 100 µM | TGI [5]: > 100 µM | TGI [7]: > 100 µM | TGI [8]: > 100 µM

O=C(NCCC1CN(S(=O)(=O)C(F)(F)F)c2ccccc21)OCc1ccccc1 (centres undefined)
TGI [1]: > 100 µM | TGI [2]: > 100 µM | TGI [3]: > 100 µM | TGI [9]: > 100 µM | TGI [5]: > 100 µM | TGI [6]: > 100 µM | TGI [7]: > 100 µM | TGI [10]: > 100 µM | TGI [8]: > 100 µM

CCOP(=O)(OCC)C(C)(CC)/N=C(\N)NC#N (centres undefined)
TGI [1]: > 100 µM | TGI [3]: > 100 µM | TGI [4]: > 100 µM | TGI [9]: > 100 µM | TGI [5]: > 100 µM | TGI [6]: > 100 µM | TGI [7]: > 100 µM | TGI [10]: > 100 µM | TGI [8]: > 100 µM

COc1cc(C(=O)N(C(=O)N2CCCCC2)c2ccccc2)cc(OC)c1OC
TGI [1]: > 100 µM | TGI [2]: > 100 µM | TGI [3]: > 100 µM | TGI [9]: > 100 µM | TGI [5]: > 100 µM | TGI [6]: > 100 µM | TGI [7]: > 100 µM | TGI [10]: > 100 µM | TGI [8]: > 100 µM

COc1ccc(OC)c(-c2cc(=O)c3cc4c(cc3[nH]2)OCO4)c1
TGI [1]: > 100 µM | TGI [2]: 41.3 µM | TGI [3]: > 100 µM | TGI [4]: > 83.3 µM | TGI [5]: > 55.5 µM | TGI [6]: 67.7 µM | TGI [7]: > 80.2 µM | TGI [10]: > 100 µM | TGI [8]: > 55.2 µM

CC(C)(CO)NC(=O)c1cccs1
TGI [1]: > 100 µM | TGI [2]: > 100 µM | TGI [3]: > 100 µM | TGI [4]: > 100 µM | TGI [5]: > 100 µM | TGI [6]: > 100 µM | TGI [7]: > 100 µM | TGI [10]: > 100 µM | TGI [8]: > 100 µM

COC(=O)C1=C(C)NC2=C(C(=O)c3ccccc32)C1c1cn[nH]c1-c1ccccc1 (centres undefined)
TGI [1]: > 100 µM | TGI [2]: > 100 µM | TGI [3]: > 100 µM | TGI [9]: > 100 µM | TGI [5]: > 100 µM | TGI [6]: > 100 µM | TGI [7]: > 100 µM | TGI [10]: > 100 µM | TGI [8]: > 100 µM

O=C1[C@H](O)[C@@H]2CCC[C@@]23CCCN13
TGI [1]: > 100 µM | TGI [2]: > 100 µM | TGI [3]: > 100 µM | TGI [4]: > 100 µM | TGI [5]: > 100 µM | TGI [6]: > 100 µM | TGI [7]: > 100 µM | TGI [10]: > 100 µM | TGI [8]: > 100 µM

O=C1NC2OC(CO)C(O)C(O)C2O1 (centres undefined)
TGI [1]: > 100 µM | TGI [2]: > 100 µM | TGI [3]: > 100 µM | TGI [4]: > 100 µM | TGI [5]: > 100 µM | TGI [6]: > 100 µM | TGI [7]: > 100 µM | TGI [10]: > 100 µM | TGI [8]: > 100 µM

CC(=O)N1CCN(CCCCN2c3ccccc3Sc3cc(N=[N+]=[N-])ccc32)CC1
TGI [1]: 29.1 µM | TGI [4]: 31.3 µM | TGI [9]: 31.6 µM | TGI [5]: 28.1 µM | TGI [6]: 27.4 µM | TGI [7]: 28.2 µM | TGI [10]: 26.6 µM | TGI [8]: 25.3 µM

Cc1csc2c(=O)n(COCc3ccccc3)c(=O)[nH]c12
TGI [1]: > 100 µM | TGI [2]: > 100 µM | TGI [3]: > 100 µM | TGI [4]: > 100 µM | TGI [9]: > 100 µM | TGI [6]: > 100 µM | TGI [7]: > 100 µM | TGI [10]: > 100 µM | TGI [8]: > 100 µM

N#CCN1CCCN(CC#N)CCN(CC#N)CCCN(CC#N)CC1
TGI [1]: > 100 µM | TGI [2]: > 100 µM | TGI [3]: > 100 µM | TGI [4]: > 100 µM | TGI [9]: > 100 µM | TGI [6]: > 100 µM | TGI [7]: > 100 µM | TGI [10]: > 100 µM | TGI [8]: > 100 µM

CN(C)CCCN=c1c2ccccc2n(C)c2[nH]c(=O)n(C)c(=O)c12
TGI [1]: > 100 µM | TGI [2]: > 84.7 µM | TGI [3]: 17.1 µM | TGI [4]: 25.7 µM | TGI [9]: 36.8 µM | TGI [5]: > 100 µM | TGI [6]: 29.9 µM | TGI [7]: 98.3 µM | TGI [10]: 43.7 µM

CCCCc1c2c(nc3c1CCCC3=O)CCCC2
TGI [1]: > 100 µM | TGI [3]: > 100 µM | TGI [5]: > 100 µM | TGI [6]: > 100 µM | TGI [7]: > 100 µM | TGI [8]: > 100 µM

CCN(CCN(CC)C(=O)NC)C(=O)NC
TGI [1]: > 100 µM | TGI [2]: > 100 µM | TGI [3]: > 100 µM | TGI [4]: > 100 µM | TGI [9]: > 100 µM | TGI [5]: > 100 µM | TGI [6]: > 100 µM | TGI [7]: > 100 µM | TGI [10]: > 100 µM

O=C1C(=Cc2ccc([N+](=O)[O-])o2)C(=O)N(CCc2ccccc2)S(=O)(=O)N1CCc1ccccc1
TGI [1]: > 100 µM | TGI [2]: 33.5 µM | TGI [3]: 29 µM | TGI [4]: > 100 µM | TGI [5]: 30.2 µM | TGI [7]: 31.2 µM | TGI [10]: > 100 µM | TGI [8]: 31.4 µM

COCC1N=C(c2cc(OC)c(OC)c(OC)c2-c2cc3c(cc2[C@@H](C)O)OCO3)O[C@H]1c1ccccc1 (some centres undefined)
TGI [1]: > 100 µM | TGI [2]: > 84.5 µM | TGI [5]: > 100 µM | TGI [6]: > 100 µM | TGI [10]: > 100 µM | TGI [8]: > 100 µM

COc1ccc(/C=C(\C2=NC(=O)CS2)c2nc3ccccc3[nH]2)cc1
TGI [1]: > 100 µM | TGI [2]: > 100 µM | TGI [3]: > 100 µM | TGI [4]: > 100 µM | TGI [5]: > 100 µM | TGI [6]: > 100 µM | TGI [7]: > 100 µM | TGI [10]: > 100 µM | TGI [8]: 52.3 µM

COc1cc(CC(=O)c2cc3c(cc2-c2ccccc2)OCO3)cc(OC)c1OC
TGI [1]: > 100 µM | TGI [2]: 42 µM | TGI [3]: > 100 µM | TGI [4]: > 100 µM | TGI [5]: > 100 µM | TGI [6]: > 100 µM | TGI [7]: > 100 µM | TGI [10]: > 100 µM | TGI [8]: > 100 µM

CC(=O)Nc1ccc(C(=O)n2[nH]c(C)c(/C=C3\C(=O)C=Cc4ccccc43)c2=O)cc1
TGI [3]: > 100 µM | TGI [5]: > 100 µM | TGI [6]: > 100 µM | TGI [7]: > 100 µM | TGI [10]: > 100 µM | TGI [8]: > 100 µM

Cn1c(=O)oc2cc(C(=S)N3CCCCC3)ccc21
TGI [1]: > 100 µM | TGI [3]: > 100 µM | TGI [4]: > 100 µM | TGI [9]: > 100 µM | TGI [5]: > 100 µM | TGI [6]: > 100 µM | TGI [7]: > 100 µM | TGI [10]: > 100 µM | TGI [8]: > 100 µM

Cc1cc(=O)[nH]c(NNC(C#N)c2ccc(N(C)C)cc2)n1 (centres undefined)
TGI [1]: > 100 µM | TGI [2]: > 100 µM | TGI [3]: > 100 µM | TGI [4]: > 100 µM | TGI [5]: > 100 µM | TGI [6]: > 100 µM | TGI [7]: > 100 µM | TGI [10]: > 100 µM | TGI [8]: > 100 µM

Brc1ccc(C[N+]23CN4CN(CN(C4)C2)C3)cc1
TGI [1]: > 100 µM | TGI [3]: 33 µM | TGI [4]: > 100 µM | TGI [5]: 69 µM | TGI [6]: > 100 µM | TGI [7]: > 100 µM | TGI [8]: > 100 µM
